One data set relates to MCF-7 tumors. The data set can be described thus: In vivo tumor reduction study, MCF-7 xenograft.
Data set [1] deals with LNCaP prostate adenocarcinoma cells. The data set can be described thus: In vitro toxicity (MTT assay). The format is cell-based. The settings on record: Homo sapiens, MTT assay after 96 h, CPT or equivalent CPT. The protocol: 3.3. In vitro toxicity (MTT assay). LNCaP prostate adenocarcinoma cell lines were obtained from ATCC (Manassas, Va., USA). Cells were seeded in 96-well plates at 5,000 cells/well and grown in medium containing 10% fetal bovine serum at 37° C. for 24 h in a humidified 5% CO2 atmosphere. The medium was replaced with fresh medium containing CPT, CPT-NPs in concentrations ranging from 1 nM to 10 μM of CPT or equivalent CPT (CPT-NPs). At each concentration, six wells per plate were treated. The effect of the compounds on cell growth was measured by the MTT assay after 96 h. The medium was removed, the cells were rinsed with PBS, MTT solution was added at a concentration of 0.5 mg/mL, and the plates were incubated for 4 hours at 37° C. The medium was removed and the formazan crystals were solubilized in MTT solubilization solution. Absorbance was measured at 560 nm using a Victor V microplate reader (Perkin Elmer, Waltham, Mass.). The percentage of cell survival was calculated relative to untreated cells, and IC50 values were determined from plots of cell survival versus dose (Table 4).

The subject of data set [2] is LLC tumor. Kind of data set: In vivo tumor reduction study, single i.v. injection. Further details: species or system C57Bl/6 mice. The note with it: emulsified Cpt 30 mg/kg i.v.; all animals reached end point at about day 5. As to the method: The efficacy of the drug conjugated silica NPs was next evaluated using xenograft models of LLC tumor developed by s.c. injection of LLC cells in the flank of C57BL/6 mice. […] Using Cpt as a reference point, the following regimens were administrated by a single i.v. injection: a, PBS; b, PEGylated blank silica NPs; c, emulsified Cpt, 30 mg/kg; d, Cpt-NP, 200 nm, 25 mg/kg; e, Cpt-NP, 20 nm, 25 mg/kg. Tumor size and body weight were then monitored for 10 days. […] Both Cpt-NPs 20 nm and 200 nm in diameter delayed tumor growth at Day 7 and 6, respectively, with statistical significance comparing with control group receiving PBS (p<0.05 by t-test). […] All animals in free Cpt group reached end point with >20% body weight loss at about day 5.
4.5. In vivo Tumor Reduction Study. Female C57Bl/6 mice, 8-week old, were anesthetized, shaved, and prepared for implantation of the tumor cells. […] After two weeks when tumors had reached ˜300 mm^3, mice were divided into five groups of five mice, minimizing weight and tumor size difference. Tumor-bearing mice were treated by intravenous injection of PBS (1×), PEGylated blank silica NPs (250 mg/kg), emulsified free CPT (Tween 80 (5%)/DMSO (10%) in PBS (1×), 30 mg/kg), CPT-NP (200 nm, 25 mg/kg) or CPT-NP (20 nm, 25 mg/kg). […]

Data set [3] relates to LLC tumor. Kind of data set: In vivo tumor prevention study. Also noted: species or system C57Bl/6 mice. The note with it: s.c. co-injection with LLC cells. The protocol:
To access the ability of Cpt-NCs to prevent establishment of a murine lung cancer in an in vivo model, Cpt-NCs were evaluated in the rapidly growing subcutaneous (s.c.) LLC tumor model in C57Bl/6 female mice. The ability of Cpt50 (5 mg/kg) to prevent LLC tumor establishment and growth was assessed by comparing to free Cpt (5 mg/kg) and LLC cancer cells alone without any treatment. The mice were s.c. injected with the mixture of [LLC and Cpt50], [LLC and Cpt] or LLC alone Animals were monitored clinically and the tumors were measured daily without knowledge of the treatment received.
Female C57Bl/6 mice, 12-13 weeks old, were anesthetized, shaved, and prepared for implantation of the tumor cells. LLC cells were collected from culture, and 750,000 cells were then mixed with Cpt50 and immediately injected subcutaneously into one flank of a mouse. The dose of equivalent Cpt was 5 mg/kg. Equivalent injections of cells with free CPT solubilized with Tween 80 (5%)/DMSO (10%) or PBS were also performed (n=5). The simultaneous injection procedure is required to assure that the cancer cells and the treatment are delivered to the same subcutaneous pocket as it would be easy to accidentally inject into different spaces when performing two separate injections.

Molecules are shown by their SMILES.

Protocol for MCF-7 tumors: To further study the effect of particle size, a xenograft human breast cancer model was chosen. Subcutaneous MCF-7 tumors developed on the flank of athymic nude mice were used to evaluate the antitumor efficacy of the drug-silica nanoconjugates with different sizes. The nude mice were implanted with an estrogen pellet and 1,000,000 MCF-7 cells per site. After tumors had developed to ˜40 mm^3, comparative efficacy studies were performed by dividing animals into six groups (n=20 or 24) to minimize weight and tumor size differences among the groups.
Female athymic nude, OVX, 9-week old mice were anesthetized, and prepared for implantation of the tumor cells. […]
After dosing, the animals were monitored closely, and measurements of the tumor size for each animal were performed at regular intervals using calipers without knowledge of which injection each animal had received. The tumor volume for each time point was calculated according to the formula (length)×(width)/2, where the long axis is the length, the short axis is the width. […] When an animal exited the study due to tumor size or treatment related death, the final tumor size recorded for the animal was included with the data used to calculate the mean size at subsequent time point.

With `CCc1c2c(nc3ccc(OC(=O)N4CCC(N5CCCCC5)CC4)cc13)-c1cc3c(c(=O)n1C2)COC(=O)[C@]3(O)CC` [Irinotecan], in the data set with MCF-7 tumors (NCs 20 mg/kg i.v. Q4d×3, Irinotecan 100 mg/kg i.p. Qwk×3, *p<0.05), the “Day from which tumor growth delay was significant vs PBS group” value is 8 days. Moreover, the “Body weight / systemic toxicity” value in the data set with MCF-7 tumors (NCs 20 mg/kg, Irinotecan 100 mg/kg) is given as “Significant body weight loss”.
`CC[C@@]1(O)C(=O)OCc2c1cc1n(c2=O)Cc2cc3ccccc3nc2-1` [CPT, Camptothecin]: the IC50 (in general, the concentration at which inhibition is half-maximal) in data set [1] was found to be 7 nM. The compound further showed a body weight loss in the data set with LLC tumor [2] of more than 20%. Besides, the “Day of statistically significant difference vs LLC group” value in the data set with LLC tumor [3] (5 mg/kg) was 20 days. Moreover, the Tumor growth prevention result in the data set with LLC tumor [3] (5 mg/kg equivalent Cpt) is given as “complete inhibition of tumor growth after Day 20”.
